We go through 19 compounds from patent US20220274979A1 (Bayer Pharma Aktiengesellschaft, priority 2018, published 2022).

The target of assay [1] is T1, Epidermal Growth Factor Receptor (EGFR) (Homo sapiens, UniProt P00533).
T1 construct: purchased Sigma-Aldrich E3641
The assay can be described thus: EGFR kinase assay (TR-FRET). The class given is biochemical. The note with it: 10 μM ATP; read-out: EGFR kinase inhibition IC50. From the text: EGFR inhibitory activity of compounds of the present invention was quantified employing the TR-FRET based EGFR assay as described in the following paragraphs.
Epidermal Growth Factor Receptor (EGFR) affinity purified from human carcinoma A431 cells (Sigma-Aldrich, # E3641) was used as kinase. As substrate for the kinase reaction the biotinylated peptide biotin-Ahx-[…] (SEQ ID NO: 8, C-terminus in amid form) was used which can be purchased e.g. form the company Biosyntan GmbH (Berlin-Buch, Germany).
For the assay 50 nL of a 100 fold concentrated solution of the test compound in DMSO was pipetted into a black low volume 384 well microtiter plate (Greiner Bio-One, Frickenhausen, Germany), 2 μL of a solution of EGFR in aqueous assay buffer [50 mM Hepes/HCl pH 7.0, 1 mM MgCl2, 5 mM MnCl2, 0.5 mM activated sodium ortho-vanadate, 0.005% (v/v) Tween-20]were added and the mixture was incubated for […] at 22° C. to allow pre-binding of the test compounds to the enzyme before the start of the kinase reaction. Then the kinase reaction was started by the addition of 3 μL of a solution of adenosine-tri-phosphate (ATP, 16.7 μM=>final conc. in the 5 μL assay volume is 10 μM) and substrate (1.67 μM =>final conc. in the 5 μL assay volume is 1μM) in assay buffer and the resulting mixture was incubated for a reaction time of […] at 22° C. The concentration of EGFR was adjusted depending of the activity of the enzyme lot and was chosen appropriate to have the assay in the linear range, typical concentration were about 3 U/ml. The reaction was stopped by the addition of 5 μl of a solution of HTRF detection reagents (0.1 μM streptavidine-XL665 [Cis Biointernational]and 1 nM PT66-Tb-Cryptate, an terbium-cryptate labelled anti-phospho-tyrosine antibody from Cis Biointernational [instead of the PT66-Tb-cryptate PT66-Eu-Chelate from Perkin Elmer can also be used]) in an aqueous EDTA-solution (80 mM EDTA, 0.2% (w/v) bovine serum albumin in 50 mM HEPES pH 7.5).
The resulting mixture was incubated 1 h at 22° C. to allow the binding of the biotinylated phosphorylated peptide to the streptavidine-XL665 and the PT66-Eu-Chelate. Subsequently the amount of phosphorylated substrate was evaluated by measurement of the resonance energy transfer from the PT66-Tb-Cryptate to the streptavidine-XL665. Therefore, the fluorescence emissions at 620 nm and 665 nm after excitation at 337 nm were measured in a HTRF reader, e.g. a Pherastar (BMG Labtechnologies, Offenburg, Germany) or a Viewlux (Perkin-Elmer). The ratio of the emissions at 665 nm and at […] was taken as the measure for the amount of phosphorylated substrate.

Assay [2] addresses T2, hK-RasG12C - hSOS1 interaction (Homo sapiens, UniProt Q07889).
T2 construct: hSOS1 (amino acid 564-1049); made in house; host or cells: E. coli BL21 (DE3)
T2 sequence (Q07889 with tags, fused parts or gaps): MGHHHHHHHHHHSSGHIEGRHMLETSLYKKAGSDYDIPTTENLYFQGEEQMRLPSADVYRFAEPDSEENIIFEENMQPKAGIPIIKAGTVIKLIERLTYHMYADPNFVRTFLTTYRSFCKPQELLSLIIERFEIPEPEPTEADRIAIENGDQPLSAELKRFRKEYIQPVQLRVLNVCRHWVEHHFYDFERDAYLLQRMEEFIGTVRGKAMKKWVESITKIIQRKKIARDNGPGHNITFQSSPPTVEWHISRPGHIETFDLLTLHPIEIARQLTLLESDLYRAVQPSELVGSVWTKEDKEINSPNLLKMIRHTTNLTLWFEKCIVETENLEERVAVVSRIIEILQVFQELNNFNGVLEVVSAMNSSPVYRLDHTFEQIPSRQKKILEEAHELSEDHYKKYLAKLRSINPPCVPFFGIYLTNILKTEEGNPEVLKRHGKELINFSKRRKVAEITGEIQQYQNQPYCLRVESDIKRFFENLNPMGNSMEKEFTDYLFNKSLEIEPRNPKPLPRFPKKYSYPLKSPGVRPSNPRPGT
The assay can be described thus: Biochemical Assay 1: hK-RasG12C interaction assay with hSOS1 (HTRF). The class given is binding. The note with it: for IC50: values expressed as IC50; for inhibition at 20 µM: read-out: Assay 1 (hKRAS, hSOS Interaction) activity (expressed as IC50, or as % inhibition at 20 μM). The protocol:
Biochemical Assay 1: hK-RasG12C Interaction Assay with hSOS1
This assay quantifies the equilibrium interaction of human SOS1 (hSOS1) with human K-Ras^G12C (hK-RasG12C). Detection of the interaction is achieved by measuring homogenous time-resolved fluorescence resonance energy transfer (HTRF) from antiGST-Europium (FRET donor) bound to GST-K-RasG12C to anti-6His-XL665 bound to His-tagged hSOS1 (FRET-acceptor).
The assay buffer contained 5 mM HEPES pH 7.4 (Applichem), 150 mM NaCl (Sigma), 10 mM EDTA (Promega), 1 mM DTT (Thermofisher), 0.05% BSA Fraction V, pH 7.0, (ICN Biomedicals), 0.0025% (v/v) Igepal (Sigma) and 100 mM KF (FLUKA).
Concentrations of protein batches used were optimized to be within the linear range of the HTRF signal. A Ras working solution was prepared in assay buffer containing typically 10 nM GST-hK-RasG12C and 2 nM antiGST-Eu(K) (Cisbio, France). A SOS1 working solution was prepared in assay buffer containing typically 20 nM His-hSOS1 and 10 nM anti-6His-XL665 (Cisbio, France). An inhibitor control solution was prepared in assay buffer containing 10 nM anti-6His-XL665 without hSOS1.
Fifty nl of a 100-fold concentrated solution of the test compound in DMSO were transferred into a black microtiter test plate (384 or 1536, Greiner Bio-One, Germany) For this, either a Hummingbird liquid handler (Digilab, Mass., USA) or an Echo acoustic system (Labcyte, Calif., USA) was used.
All steps of the assay were performed at 20° C. A volume of 2.5 μl of the Ras working solution was added to all wells of the test plate using a Multidrop dispenser (Thermo Labsystems). After […] preincubation, 2.5 μl of the SOS1 working solution were added to all wells except for those wells at the side of the test plate that were subsequently filled with 2.5 μl of the inhibitor control solution. After […] incubation the fluorescence was measured with a Pherastar (BMG, Germany) using the HTRF module (excitation 337 nm, emission 1:620 nm, emission 2:665 nm).
IC50 values were calculated by 4-Parameter fitting using a commercial software package (Genedata Screener, Switzerland).
(In general: TR-FRET usually uses a lanthanide donor and a delayed reading to cut background.)

T1 sequence (P00533 25-1210): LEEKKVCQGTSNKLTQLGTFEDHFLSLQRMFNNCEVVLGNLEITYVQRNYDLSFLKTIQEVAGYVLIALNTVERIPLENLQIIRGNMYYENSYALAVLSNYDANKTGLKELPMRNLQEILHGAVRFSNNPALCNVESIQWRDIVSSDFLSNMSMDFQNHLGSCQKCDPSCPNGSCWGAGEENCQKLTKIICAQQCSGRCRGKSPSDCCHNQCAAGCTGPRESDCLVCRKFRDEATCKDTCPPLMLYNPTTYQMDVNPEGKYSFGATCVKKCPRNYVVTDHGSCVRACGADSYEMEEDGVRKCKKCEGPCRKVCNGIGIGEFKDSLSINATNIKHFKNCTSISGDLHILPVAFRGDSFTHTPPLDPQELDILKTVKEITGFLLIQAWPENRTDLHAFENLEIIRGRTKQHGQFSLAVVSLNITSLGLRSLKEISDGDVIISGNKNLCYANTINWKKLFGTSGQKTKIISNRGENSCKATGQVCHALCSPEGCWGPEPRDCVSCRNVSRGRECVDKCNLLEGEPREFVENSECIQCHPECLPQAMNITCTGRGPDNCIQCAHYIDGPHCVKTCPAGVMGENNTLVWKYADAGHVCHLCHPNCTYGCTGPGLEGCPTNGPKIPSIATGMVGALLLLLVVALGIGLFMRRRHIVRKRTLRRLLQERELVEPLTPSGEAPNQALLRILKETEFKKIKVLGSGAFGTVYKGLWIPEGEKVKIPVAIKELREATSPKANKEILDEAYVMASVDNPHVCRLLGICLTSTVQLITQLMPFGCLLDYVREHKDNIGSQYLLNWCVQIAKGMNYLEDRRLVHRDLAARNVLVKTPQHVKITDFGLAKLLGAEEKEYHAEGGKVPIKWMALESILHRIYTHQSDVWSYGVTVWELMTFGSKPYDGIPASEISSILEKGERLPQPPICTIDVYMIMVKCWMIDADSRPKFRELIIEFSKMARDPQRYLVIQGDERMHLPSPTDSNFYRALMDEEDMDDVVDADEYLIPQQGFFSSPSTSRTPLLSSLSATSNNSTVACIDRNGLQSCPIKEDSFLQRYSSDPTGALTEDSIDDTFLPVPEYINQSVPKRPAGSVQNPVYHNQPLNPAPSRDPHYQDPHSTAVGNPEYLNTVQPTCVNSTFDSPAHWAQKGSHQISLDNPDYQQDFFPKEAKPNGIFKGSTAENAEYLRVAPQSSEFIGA

A word on the IC50: it is the concentration needed to halve the response being measured. On to `CCOc1ncc2nc(C)nc(N[C@H](C)c3cccc(Br)c3)c2n1` [Example 23, N-[(1R)-1-(3-bromophenyl)ethyl]-6-ethoxy-2-methylpyrimido[5,4-d]pyrimidin-4-amine], for which the IC50 in assay [1] was over 20 µM; in assay [2], 4.35 µM.

Regarding `COc1ncc2nc(C)nc(N[C@H](C)c3cccc(Br)c3)c2n1` [Example 24, N-[(1R)-1-(3-bromophenyl)ethyl]-6-methoxy-2-methylpyrimido[5,4-d]pyrimidin-4-amine], the 50% inhibitory concentration (IC50) in assay [1] was over 20 µM; in assay [2], 9.41 µM.

Usually inhibition stands for the change of the read-out against control, counted positive when it falls. In the case of `Cc1nc(N[C@H](C)c2cccc(Br)c2)c2nc(Oc3ccccc3)ncc2n1` [Example 25, N-[(1R)-1-(3-bromophenyl)ethyl]-2-methyl-6-phenoxypyrimido[5,4-d]pyrimidin-4-amine], the IC50 in assay [1] is over 20 µM. Moreover, the inhibition at 20 µM in assay [2] stood at 23.7%.

Take `COCCOc1ncc2nc(C)nc(N[C@H](C)c3cccc(Br)c3)c2n1` [Example 26, N-[(1R)-1-(3-bromophenyl)ethyl]-6-(2-methoxyethoxy)-2-methylpyrimido[5,4-d]pyrimidin-4-amine]: the 50% inhibitory concentration (IC50) in assay [1] is over 20 µM; in assay [2], 2.75 µM.

For the compound `Cc1nc(N[C@H](C)c2cccc(Br)c2)c2nc(N3CCOCC3)ccc2n1` [Example 27, N-[(1R)-1-(3-bromophenyl)ethyl]-2-methyl-6-(morpholin-4-yl)pyrido[3,2-d]pyrimidin-4-amine], the values for the half-maximal inhibitory concentration (IC50) in assay [1] and in assay [2] were over 20 µM and 2.58 µM, respectively.

For `COc1ccc2nc(C)nc(N[C@H](C)c3cccc(Br)c3)c2n1` [Example 28, N-[(1R)-1-(3-bromophenyl)ethyl]-6-methoxy-2-methylpyrido[3,2-d]pyrimidin-4-amine], the concentration for half-maximal inhibition (IC50) in assay [1] is over 20 µM. In assay [2], the inhibition at 20 µM was 49.8%.

Consider `CCOc1ccc2nc(C)nc(N[C@H](C)c3cccc(Br)c3)c2n1` [Example 29, N-[(1R)-1-(3-bromophenyl)ethyl]-6-ethoxy-2-methylpyrido[3,2-d]pyrimidin-4-amine], for which the results for the IC50 in assay [1] and in assay [2] were over 20 µM and 17.4 µM, respectively.

Turning to `COCCOc1ccc2nc(C)nc(N[C@H](C)c3cccc(Br)c3)c2n1` [Example 30, N-[(1R)-1-(3-bromophenyl)ethyl]-6-(2-methoxyethoxy)-2-methylpyrido[3,2-d]pyrimidin-4-amine], the half-inhibitory concentration (IC50) in assay [1] was over 20 µM; in assay [2] it was 5.43 µM.

For the compound `Cc1nc(N[C@H](C)c2cccc(Br)c2)c2nc(N(C)C)ccc2n1` [Example 31], the IC50 is over 20 µM in assay [1] and 17.7 µM in assay [2].

As for `Cc1nc(N[C@H](C)c2cccc(Br)c2)c2nc(Oc3ccccc3)ccc2n1` [Example 32, N-[(1R)-1-(3-bromophenyl)ethyl]-2-methyl-6-phenoxypyrido[3,2-d]pyrimidin-4-amine], the IC50 in assay [1] is over 20 µM. In assay [2], the inhibition at 20 µM came to 22.4%.

`Cc1nc(N[C@H](C)c2cccc(Br)c2)c2nc(OCc3ccccc3)ccc2n1` [Example 33, 6-(benzyloxy)-N-[(1R)-1-(3-bromophenyl)ethyl]-2-methylpyrido[3,2-d]pyrimidin-4-amine]: in assay [1], the IC50 was over 20 µM. Besides, the inhibition at 20 µM in assay [2] came out at 29.3%.

Take `Cc1nc(N[C@H](C)c2cccc(Br)c2)c2cc(F)ncc2n1` [Example 34, N-[(1R)-1-(3-bromophenyl)ethyl]-6-fluoro-2-methylpyrido[3,4-d]pyrimidin-4-amine]: in assay [1], the IC50 is over 20 µM. In assay [2], the inhibition at 20 µM is 36.7%.

Take `Cc1nc(NC(C)c2ccc(Br)s2)c2cc(F)ncc2n1` (centres unmarked) [Example 35]: in assay [1], the IC50 was over 20 µM. Moreover, the inhibition at 20 µM in assay [2] stood at 23.5%.

Take `CNCc1ccccc1-c1ccc(C(C)Nc2nc(C)nc3cnc(F)cc23)s1` (centres unmarked) [Example 36, 6-fluoro-2-methyl-N-[1-(5-{2-[(methylamino)methyl]phenyl}thiophen-2-yl)ethyl]pyrido[3,4-d]pyrimidin-4-amine]: the values for the concentration for half-maximal inhibition (IC50) in assay [1] and in assay [2] were over 20 µM and 9.03 µM, respectively.

As for `CNCc1ccccc1-c1ccc(C(C)Nc2nc(C)nc3cnc(Oc4ccc(N5CCCC5=O)cc4)cc23)s1` (centres unmarked) [Example 38, 1-{4-[(2-methyl-4-{[1-(5-{2-[(methylamino)methyl]phenyl}thiophen-2-yl)ethyl]amino}pyrido[3,4-d]pyrimidin-6-yl)oxy]phenyl}pyrrolidin-2-one], the values for the IC50 in assay [1] and in assay [2] were over 20 µM and 0.218 µM, respectively.

As to `Cc1nc(N[C@H](C)c2cccc(Br)c2)c2cc(NCCN3CCOCC3)ncc2n1` [Example 39], the IC50 is over 20 µM in assay [1] and 0.876 µM in assay [2].

With `Cc1nc(N[C@H](C)c2cccc(Br)c2)c2cc(Oc3cccc(O)c3)ncc2n1` [Example 40, 3-[(4-{[(1R)-1-(3-bromophenyl)ethyl]amino}-2-methylpyrido[3,4-d]pyrimidin-6-yl)oxy]phenol], the concentration for half-maximal inhibition (IC50) in assay [1] is over 20 µM; in assay [2], 13.2 µM.

For `Cc1nc(N[C@H](C)c2cccc(Br)c2)c2cc(Oc3cccc(C4=NCCN4C)c3)ncc2n1` [Example 41, N-[(1R)-1-(3-bromophenyl)ethyl]-2-methyl-6-[3-(1-methyl-4,5-dihydro-1H-imidazol-2-yl)phenoxy]pyrido[3,4-d]pyrimidin-4-amine], the IC50 is over 20 µM in assay [1] and 1.6 µM in assay [2].

Take `Cc1nc(N[C@H](C)c2cccc(Br)c2)c2cc(N3CCN(Cc4cccnc4)CC3)ncc2n1` [Example 43, N-[(1R)-1-(3-bromophenyl)ethyl]-2-methyl-6-[4-(pyridin-3-ylmethyl)piperazin-1-yl]pyrido[3,4-d]pyrimidin-4-amine]: the IC50 is over 20 µM in assay [1] and 0.296 µM in assay [2].
